Assay results reported in PubChem BioAssay AID489032 (Sanford-Burnham Center for Chemical Genomics, 2010).
Active and inactive are the calls of the source. The rule behind the calls is not given here.

What follows are compounds tested on UPR adaptive arm reporter cells, luciferase luminescence (assay: adaptive unfolded protein response reporter activation – cell-based, luciferase luminescence, dose response (AID 489032)).
For `CN(C)CCOc1ccc(-c2c(-c3ccccc3)sc3ccccc23)cc1`, the EC50 was > 80 µM (inactive).
For `COc1ccc2c(c1)[nH]c1c(=O)n(/N=C/C3C(C)C=C(C)CC3C)c(=O)[nH]c12` (stereo not drawn), the EC50 was 65.8 µM (inactive).
In the case of `O=C(Nc1nc(-c2ccc3ccccc3c2)cs1)c1ccc(N2C(=O)CCC2=O)cc1`, the EC50 is reported as > 80 µM (inactive).
In the case of `COc1ccc(NC(=O)c2sc3nc(N4CCOCC4)c4c(c3c2N)CC(C)(C)OC4)c(OC)c1`, the EC50 is reported as > 80 µM (inactive).
In the case of `Cc1ccc(-c2nnn(CC(=O)Nc3ccc(S(=O)(=O)N4CCC(C)CC4)cc3)n2)cc1`, the EC50 is reported as > 80 µM (inactive).
In the case of `COc1cc(/C=N/NC(N)=O)c(Br)cc1OCC(=O)Nc1ccccc1C`, the EC50 is reported as > 80 µM (inactive).
With `CCOC(=O)C1=C(C)N=C2c3ccccc3C(=O)C2C1c1ccc(C)cc1` (stereo not drawn) the EC50 was > 80 µM (inactive).
`CCC1(c2ccc(F)cc2)NC(=O)N(CC(=O)Nc2ccc(-c3nc4ccc(C)cc4s3)cc2)C1=O` (stereo not drawn) was tested, and the EC50 was > 80 µM (inactive).
With `COc1ccc(Nc2nc(N)c([N+](=O)[O-])c(NC3CCCCC3)n2)cc1` the EC50 was > 80 µM (inactive).
With `CCOC(=O)c1[nH]c2ccc(Cl)cc2c1NC(=O)/C=C/c1ccc2c(c1)OCO2` the EC50 was 74.2 µM (inactive).
`O=C(O)c1ccc(N2C(=O)/C(=C/c3ccc(-c4ccc([N+](=O)[O-])cc4)o3)C=C2c2ccccc2)cc1` was tested, and the EC50 was > 80 µM (inactive).
With `CCCc1nc2c(c(=O)c3ccccc3n2C)c(=O)n1C1CCCCCC1` the EC50 was > 80 µM (inactive).
For `Cc1nn(Cc2c(Cl)cccc2Cl)c(C)c1NC(=O)c1sc2ccccc2c1Cl`, the EC50 was 29.8 µM (inactive).
In the case of `O=C(Nc1ccc(O)c(-c2nc3ccccc3s2)c1)c1cc(=O)c2ccccc2o1`, the EC50 is reported as > 80 µM (inactive).
`O=C(Nc1ccc2nc3n(c(=O)c2c1)CCCCC3)c1ccccc1Cl` was tested, and the EC50 was > 80 µM (inactive).
With `Cc1cc(C)nc(SCc2ccc(C(=O)N/N=C/c3cccc(O)c3O)cc2)n1` the EC50 was > 80 µM (inactive).
In the case of `O=Cc1cc2ccccc2nc1SCc1ccc(Cl)cc1`, the EC50 is reported as 40.2 µM (inactive).
`COc1ccc(-c2nnc(SCC(=O)Nc3sc4c(c3C#N)CCCC4)n2-c2ccccc2)cc1` was tested, and the EC50 was > 80 µM (inactive).
With `CCOc1ccc(NC(=O)C(Cc2ccccc2)N2C(=O)c3cccc4cccc(c34)C2=O)cc1` (stereo not drawn) the EC50 was > 80 µM (inactive).
`CC1CCC(C(C)C)C(OC(=O)Cn2c(-c3ccc(Br)cc3)[n+](C)c3ccccc32)C1` (stereo not drawn) was tested, and the EC50 was > 80 µM (inactive).
With `Cn1c2ccccc2c2cc(/C=N/NC(=O)c3cc(O)ccc3O)ccc21` the EC50 was 38.1 µM (inactive).
In the case of `COc1cc(/C=N/Nc2nc(Nc3ccccc3)nc(-n3nc(C)cc3C)n2)cc(OC)c1OC`, the EC50 is reported as > 80 µM (inactive).
In the case of `O=C(CSc1nc2ccc(Nc3nc(N4CCOCC4)nc(N4CCOCC4)n3)cc2s1)Nc1ccccc1F`, the EC50 is reported as 11.7 µM.
In the case of `Cc1ccc(-n2nc3c(N4CCC(C(=O)NCCc5cccs5)CC4)nnc(C)c3c2C)cc1`, the EC50 is reported as > 80 µM (inactive).
`CC1(C)CC[C@@]23CC[C@]4(C)[C@@](OC2=O)(C3C1)[C@H]1O[C@H]1C1[C@@]2(C)CC[C@H](O)C(C)(C)C2CC[C@]14C` (stereo partly drawn) was tested, and the EC50 was > 80 µM (inactive).
For `COc1ccc(NC(=O)C(=O)N/N=C\c2ccc(CNC(=O)C(=O)Nc3ccc(C)c(C)c3)o2)c(OC)c1`, the EC50 was > 80 µM (inactive).
For `CC1=C(CC/C(C)=N/NC(N)=S)C(C)(C)CCC1`, the EC50 was 29.3 µM (inactive).
With `Cc1ccc(NC(=O)c2c(C)nc3sc(C(=O)NC4CCCC4)c(N)c3c2-c2ccco2)c(C)c1` the EC50 was 48.4 µM (inactive).
For `Cc1ccc(-c2nnn(CC(=O)N(Cc3cccs3)C(C(=O)NC3CCCCC3)c3ccco3)n2)o1` (stereo not drawn), the EC50 was > 80 µM (inactive).
`COc1ccccc1N=Cc1c(O)c2ccccc2oc1=O` showed an EC50 of 16.4 µM.
With `Cn1c(=O)c2c(SCC(=O)Nc3ccccc3F)nc(-c3ccccc3F)nc2n(C)c1=O` the EC50 was 36.1 µM (inactive).
`Oc1cccc2ccc(/C=C/c3ccc(Br)s3)nc12` was tested, and the EC50 was > 80 µM (inactive).
For `O=C(Oc1ccccc1/C=C\C(=O)c1cc2ccccc2o1)c1cccc(F)c1`, the EC50 was > 80 µM (inactive).
For `CCC(=O)Nc1ccc(NC(=O)CSc2nc3cc4c(cc3cc2C)CCC4)cc1`, the EC50 was > 80 µM (inactive).
`Cc1ccc2nc(N(CCCN(C)C)C(=O)c3ccc(S(=O)(=O)N4CCc5ccccc5C4)cc3)sc2c1` was tested, and the EC50 was > 80 µM (inactive).
For `C/C(=N/NC(=O)c1ccc(C)s1)c1cccc(NC(=O)COc2ccc(Cl)cc2C)c1`, the EC50 was 72.4 µM (inactive).
`CCOC(=O)c1nnc(-c2ccc(C)cc2)nc1Sc1cccc(Cl)c1` was tested, and the EC50 was > 80 µM (inactive).
For `c1ccc(Oc2c3ccccc3nc3ccccc23)cc1`, the EC50 was > 80 µM (inactive).
With `COc1ccc(OC)c(Nc2nc(NCc3ccco3)nc(N)c2[N+](=O)[O-])c1` the EC50 was > 80 µM (inactive).
With `Cc1ccc(CNC(=O)c2ccc3c(=O)n4c(-c5ccc(C)cc5)csc4nc3c2)cc1` the EC50 was > 80 µM (inactive).
`O=C(Nc1ccc(-c2nc3cc(NC(=O)c4cccs4)ccc3o2)cc1)c1cccs1` was tested, and the EC50 was 4.31 µM.
For `COc1ccc(C(=O)Nc2cccc(/C=C/c3nc4ccccc4c(=O)[nH]3)c2)cc1`, the EC50 was > 80 µM (inactive).
`CCCCN1C(=O)/C(=C2/Sc3ccc(OC)cc3N2CC)SC1=S` was tested, and the EC50 was > 80 µM (inactive).
In the case of `NS(=O)(=O)c1ccc(N=Cc2c(O)n(C3CCCCC3)c(=O)n(C3CCCCC3)c2=O)cc1`, the EC50 is reported as > 80 µM (inactive).
For `N=c1n(CC(=O)c2ccc([N+](=O)[O-])cc2)c2ccccc2n1Cc1ccc(Cl)cc1`, the EC50 was > 80 µM (inactive).
`Cc1ccc(Cn2c(SCC(=O)Nc3cc(C)on3)nc3ccccc3c2=O)cc1` was tested, and the EC50 was > 80 µM (inactive).
For `CC1CCCN(c2ccc(C(=O)NCc3cccs3)cn2)C1` (stereo not drawn), the EC50 was > 80 µM (inactive).
`O=C(Nc1nc(-c2ccc(F)c(F)c2)cs1)Nc1ccc(F)cc1F` was tested, and the EC50 was 37.2 µM (inactive).
For `O=C(NC(=S)Nc1cc(-c2nc3ccccc3[nH]2)ccc1Cl)c1ccc2c(c1)OCO2`, the EC50 was 10.1 µM.
In the case of `CC(C)C(=O)N(c1cc2sc(=O)oc2c2ccccc12)S(=O)(=O)c1cccs1`, the EC50 is reported as > 80 µM (inactive).
For `CCOC(=O)c1c(-c2ccc(C)o2)csc1NC(=O)COC(=O)c1ccc(NC(N)=O)cc1`, the EC50 was > 80 µM (inactive).
With `COc1ccc2nc(/C(C#N)=C\c3ccc(Oc4ccc([N+](=O)[O-])cn4)cc3)[nH]c2c1` the EC50 was > 80 µM (inactive).
In the case of `Cc1ccc(N=Cc2c(O)n(-c3ccc4c(c3)OCO4)c(=O)c3ccccc23)cc1`, the EC50 is reported as > 80 µM (inactive).
Compound `CCCCN(CC)S(=O)(=O)c1ccc(C(=O)N=c2sc3cc(NC(C)=O)ccc3n2C)cc1` has an EC50 of 5.4 µM.
In the case of `Cc1nn(Cc2ccccc2)c(C)c1NC(=O)CSc1nc(C2CC2)nc2c1cnn2-c1ccccc1`, the EC50 is reported as 47.2 µM (inactive).
With `CCCCCn1c(N)c(-c2nc3ccccc3o2)c2c([N+](=O)[O-])nn(CC)c(=O)c21` the EC50 was > 80 µM (inactive).
In the case of `O=C(Oc1ccc(F)cc1C(=O)/C=C/c1cccs1)c1cccc([N+](=O)[O-])c1`, the EC50 is reported as 51.3 µM (inactive).
In the case of `N#C/C(=C/c1ccc(N2CCCC2)c([N+](=O)[O-])c1)c1nc2ccccc2[nH]1`, the EC50 is reported as > 80 µM (inactive).
With `Nc1nc(Nc2ccccc2)nc(NC2CCCCC2)c1[N+](=O)[O-]` the EC50 was 29.2 µM (inactive).
For `CCCc1nc2ccccc2c(=O)n1/N=C/c1ccc(O)c(O)c1`, the EC50 was > 80 µM (inactive).
`Cc1ccc(Cn2c(=O)n(-c3ccccc3)c(=O)c3ccc(C(=O)NCc4ccco4)cc32)cc1` was tested, and the EC50 was > 80 µM (inactive).
With `CCC/C(=N/Nc1ccc(Cl)cc1)c1cnnc(-c2ccccc2)n1` the EC50 was > 80 µM (inactive).
`Cc1cnc(NC(=O)c2cc3c(C)nn(Cc4ccccc4Cl)c3s2)s1` was tested, and the EC50 was > 80 µM (inactive).
With `O=[N+]([O-])c1ccc(Cl)c(-c2ccc(/C=N/c3c(-c4ccco4)nc4ccccn34)o2)c1` the EC50 was 39.3 µM (inactive).
`O=C(C[C@@H]1C/C=C/CC[C@H](Cc2ccc(F)cc2)C(=O)OC[C@@H](Cc2ccccc2)NC1=O)N[C@H](CO)Cc1ccccc1` gave an EC50 of 18.8 µM.
For `COc1ccc(-c2coc3cc4oc(=O)cc(-c5ccccc5)c4cc23)cc1F`, the EC50 was 43.3 µM (inactive).
For `CCCCCCCCCn1c2c(c(=N)c3c1CCC3)CCCC2`, the EC50 was 25.6 µM (inactive).
With `Cc1cc(C)c(NC(=O)CSc2nc(COc3ccccc3)nc3ccccc23)c(C)c1` the EC50 was > 80 µM (inactive).
`Cc1ccc2c(c1)c(N=NC(N)=S)c(O)n2Cc1ccccc1` was tested, and the EC50 was 61.8 µM (inactive).
In the case of `CCOc1ccc(S(=O)(=O)Nc2cccc(C(=O)NCC3(N4CCCCC4)CCCCC3)c2)cc1`, the EC50 is reported as 15.3 µM.
With `C=CCN1C(=O)/C(=C2/Sc3ccc(OC)cc3N2C)SC1=Nc1cccc(O)c1` the EC50 was > 80 µM (inactive).
In the case of `Cn1nc(C(F)(F)F)c(/C=N/OC(=O)c2ccccc2)c1SCc1ccccc1Cl`, the EC50 is reported as 10.3 µM.
In the case of `CCOc1ccc(-c2nnc(SCC(=O)Nc3ccc4c(c3)c3ccccc3n4CC)n2N)cc1`, the EC50 is reported as > 80 µM (inactive).
With `Cc1ccc2c(c1)C(=O)C(=O)N2Cc1ccc(Br)cc1` the EC50 was 59.8 µM (inactive).
For `COc1ccc(CNC(=O)/C(C#N)=C/c2cccc(OC)c2OC)cc1`, the EC50 was 73 µM (inactive).
For `CC(=O)c1cccc(N=Cc2c(O)c3ccccc3oc2=O)c1`, the EC50 was > 80 µM (inactive).
In the case of `CCOC(=O)c1c(NC(=O)c2cc(-c3ccc(O)cc3)on2)sc(C(C)=O)c1C`, the EC50 is reported as > 80 µM (inactive).
In the case of `CCCCCCCCCCOC(=O)Cn1c(COc2ccc(C)cc2)[n+](C)c2ccccc21`, the EC50 is reported as > 80 µM (inactive).
In the case of `Cc1cc(NC(=O)c2cc(-c3ccccn3)nc3ccc(Br)cc23)no1`, the EC50 is reported as > 80 µM (inactive).
For `CCOc1cc(/C=N\Nc2ccc([N+](=O)[O-])cc2)ccc1OCC(=O)Nc1ccc(C)c(C)c1`, the EC50 was 43.2 µM (inactive).
With `COC(=O)c1c(C)oc2ccc(N(C(=O)Oc3ccccc3)S(=O)(=O)c3ccc(Cl)c([N+](=O)[O-])c3)cc12` the EC50 was 20.1 µM (inactive).
`O=C1NC(=O)N(Cc2ccccc2)C(=O)/C1=C\c1ccco1` was tested, and the EC50 was > 80 µM (inactive).
In the case of `COC(=O)C1C(O)=C(C=Nc2cccc3ccccc23)C(=O)CC1(C)C` (stereo not drawn), the EC50 is reported as 30.1 µM (inactive).
For `O=C1Nc2ccccc2/C1=C/c1ccc([N+](=O)[O-])cc1`, the EC50 was > 80 µM (inactive).
With `CC1CN(S(=O)(=O)c2ccc(C(=O)Nc3nc(-c4cc5ccccc5o4)cs3)cc2)CC(C)O1` (stereo not drawn) the EC50 was > 80 µM (inactive).
With `CCOC(=O)Cc1csc(/N=C/c2c(O)n(-c3ccc(C)c(C)c3)c(=O)c3ccccc23)n1` the EC50 was > 80 µM (inactive).
With `CC(C)c1ccc(/C=C/C(=O)Nc2nc3ccc([N+](=O)[O-])cc3s2)cc1` the EC50 was > 80 µM (inactive).
`O=C(/C=C\c1cn(-c2ccccc2)nc1-c1ccccc1)Nc1nccs1` was tested, and the EC50 was > 80 µM (inactive).
